Source: patent publication EP1561465A2, “Methods of use of fluoroquinolone compounds against bacteria” (LG Life Sciences, Ltd., priority 1999, dated 2001)
≈ marks a conversion by molar mass, not a printed value. Read-outs that look alike come from different tables or passages of the source.

Tests used:
Assay type in all cases: cell-based
E. coli = assay: microbe, parasite or virus in culture; details: Escherichia coli
Streptococcus pneumoniae = assay: MIC by two-fold serial agar dilution, Sensitivity Disk agar-N (Kitasato isolates); details: for MIC90 / MIC / MIC50: Streptococcus pneumoniae; for MIC90: read-out: MIC90; for MIC: read-out: MIC Range; for MIC50: read-out: MIC50
Haemophilus influenzae [1] = assay: MIC by NCCLS reference broth microdilution, 450 respiratory tract pathogens; details: Haemophilus influenzae; for MIC90: read-out: MIC90
[2] = test system: Gram positive anaerobic and facultative anaerobic pathogens; assay: microbe, parasite or virus in culture
P. aeruginosa = assay: MIC by two-fold serial agar dilution, quinolone-resistant strains; details: Pseudomonas aeruginosa
Escherichia coli = assay: MIC by NCCLS broth microdilution, 1100 Japanese clinical isolates 1997-1998; details: for MIC50 / MIC90: Escherichia coli
Haemophilus influenzae [3] = assay: MIC by agar dilution (NCCLS), 411 isolates Buenos Aires 1998-99; details: Haemophilus influenzae (n = 65)
[4] = Haemophilus influenzae (n = 100)
[5] = Escherichia coli ciprofloxacin susceptible (n=37)

## CO/N=C1\CN(c2nc3c(cc2F)c(=O)c(C(=O)O)cn3C2CC2)CC1CN (racemic) [Gemifloxacin, (R,S)-7-(3-aminomethyl-4-methoxyiminopyrrolidin-1-yl)-1-cyclopropyl-6-fluoro-4-oxo-1,4-dihydro-1,8-naphthyridine-3-carboxylic acid]
E. coli; E. coli KU1036, mutant type GB (DNA gyrase B)
  MIC: 0.031 µg/mL (≈ 0.0796 µM)
E. coli; E. coli KU1038, mutant type SP
  MIC: 0.031 µg/mL (≈ 0.0796 µM)
E. coli; E. coli KU1039, mutant type SP
  MIC: 0.125 µg/mL (≈ 0.321 µM)
E. coli; E. coli KU1040, mutant type SP
  MIC: ≤ 0.008 µg/mL
E. coli; E. coli KU1041, mutant type SP
  MIC: 0.25 µg/mL (≈ 0.642 µM)
E. coli; E. coli KU1042, mutant type SP
  MIC: 0.063 µg/mL (≈ 0.162 µM)
E. coli; E. coli mutated in the DNA gyrase
  MIC50: 0.032 µg/mL (≈ 0.0822 µM)
Streptococcus pneumoniae; S. pneumoniae, by MIC90
  more potent than sparfloxacin: 8 fold
  more potent than trovafloxacin: 4 fold
Streptococcus pneumoniae; 18 h, Ciprofloxacin-resistant (21), ciprofloxacin MIC ≥8 µg/ml
  MIC90: 0.5 µg/mL (≈ 1.28 µM)
Streptococcus pneumoniae; 18 h, Ciprofloxacin-resistant (21)
  MIC: 0.063 to 0.5 µg/mL (≈ 0.162 to 1.28 µM)
Streptococcus pneumoniae; 18 h, Ciprofloxacin-susceptible (94)
  MIC: 0.008 to 0.063 µg/mL (≈ 0.0205 to 0.162 µM)
Streptococcus pneumoniae; 18 h, Erythromycin-resistant (37)
  MIC: 0.016 to 0.5 µg/mL (≈ 0.0411 to 1.28 µM)
Streptococcus pneumoniae; 18 h, Minocycline-resistant (37)
  MIC: 0.016 to 0.5 µg/mL (≈ 0.0411 to 1.28 µM)
Streptococcus pneumoniae; 18 h, Penicillin-resistant (19)
  MIC: 0.016 to 0.063 µg/mL (≈ 0.0411 to 0.162 µM)
Streptococcus pneumoniae; Ciprofloxacin-resistant (21)
  MIC50: 0.25 µg/mL (≈ 0.642 µM)
Streptococcus pneumoniae; Ciprofloxacin-susceptible (94)
  MIC50: 0.031 µg/mL (≈ 0.0796 µM)
  MIC90: 0.031 µg/mL (≈ 0.0796 µM)
Streptococcus pneumoniae; Erythromycin-resistant (37)
  MIC50: 0.031 µg/mL (≈ 0.0796 µM)
  MIC90: 0.063 µg/mL (≈ 0.162 µM)
Streptococcus pneumoniae; Minocycline-resistant (37)
  MIC50: 0.031 µg/mL (≈ 0.0796 µM)
  MIC90: 0.063 µg/mL (≈ 0.162 µM)
Streptococcus pneumoniae; Penicillin-resistant (19)
  MIC50: 0.016 µg/mL (≈ 0.0411 µM)
  MIC90: 0.063 µg/mL (≈ 0.162 µM)
Haemophilus influenzae [1]; [4]
  MIC: 0.0075 to 0.06 µg/mL (≈ 0.0193 to 0.154 µM)
  MIC50: ≤ 0.0075 µg/mL
  MIC90: ≤ 0.00075 µg/mL
Haemophilus influenzae [1]; β-lactamase negative (n = 80)
  MIC: 0.0075 to 0.015 µg/mL (≈ 0.0193 to 0.0385 µM)
  MIC50: ≤ 0.0075 µg/mL
  MIC90: ≤ 0.0075 µg/mL
Haemophilus influenzae [1]; β-lactamase positive (n = 20)
  MIC: 0.0075 to 0.06 µg/mL (≈ 0.0193 to 0.154 µM)
  MIC50: ≤ 0.0075 µg/mL
  MIC90: 0.015 µg/mL (≈ 0.0385 µM)
[2]; Bifidobacterium adolescentis, ATCC15703
  MIC: 0.25 µg/mL (≈ 0.642 µM)
[2]; Bifidobacterium bifidum, JCM1255
  MIC: 2 µg/mL (≈ 5.14 µM)
[2]; Bifidobacterium breve, ATCC15700
  MIC: 1 µg/mL (≈ 2.57 µM)
[2]; Bifidobacterium longum, ATCC15707
  MIC: 1 µg/mL (≈ 2.57 µM)
[2]; Bifidobacterium pseudolongum, ATCC25526
  MIC: 1 µg/mL (≈ 2.57 µM)
[2]; Clostridioides difficile
  MIC: 2 µg/mL (≈ 5.14 µM)
[2]; Clostridium perfringens, ATCC13124
  MIC: 0.06 µg/mL (≈ 0.154 µM)
[2]; Clostridium septicum, ATCC12464
  MIC: 0.06 µg/mL (≈ 0.154 µM)
[2]; Cutibacterium acnes, ATCC11828
  MIC: 0.25 µg/mL (≈ 0.642 µM)
[2]; Eggerthella lenta, ATCC25559
  MIC: 0.25 µg/mL (≈ 0.642 µM)
[2]; Finegoldia magna, ATCC29328
  MIC: ≤ 0.03 µg/mL
[2]; Gemella morbillorum, ATCC27824
  MIC: 0.25 µg/mL (≈ 0.642 µM)
[2]; Lacticaseibacillus casei, JCM1134
  MIC: ≤ 0.03 µg/mL
[2]; Lactiplantibacillus plantarum, JCM1149
  MIC: 2 µg/mL (≈ 5.14 µM)
[2]; Lactobacillus acidophilus, JCM1132
  MIC: 0.5 µg/mL (≈ 1.28 µM)
[2]; Levilactobacillus brevis, JCM1059
  MIC: 0.5 µg/mL (≈ 1.28 µM)
[2]; Ligilactobacillus salivarius, JCM1231
  MIC: 0.06 µg/mL (≈ 0.154 µM)
[2]; Limosilactobacillus reuteri, JCM1112
  MIC: 0.25 µg/mL (≈ 0.642 µM)
[2]; Limosilactobacillus reuteri, JCM1173
  MIC: 0.25 µg/mL (≈ 0.642 µM)
[2]; Paraclostridium sordellii, ATCC9714
  MIC: 0.5 µg/mL (≈ 1.28 µM)
[2]; Parvimonas micra
  MIC: 0.125 µg/mL (≈ 0.321 µM)
[2]; Peptoniphilus asaccharolyticus
  MIC: 0.125 µg/mL (≈ 0.321 µM)
[2]; Peptoniphilus indolicus
  MIC: ≤ 0.03 µg/mL
[2]; Peptostreptococcus anaerobius, ATCC27337
  MIC: 0.06 µg/mL (≈ 0.154 µM)
[2]; Schaalia odontolytica
  MIC: 4 µg/mL (≈ 10.3 µM)
[2]; Staphylococcus saccharolyticus, ATCC14953
  MIC: ≤ 0.03 µg/mL
[2]; Streptococcus constellatus, ATCC27823
  MIC: ≤ 0.03 µg/mL
[2]; Streptococcus intermedius, ATCC27335
  MIC: 0.06 µg/mL (≈ 0.154 µM)
[2]; Thomasclavelia ramosa, ATCC25582
  MIC: 0.5 µg/mL (≈ 1.28 µM)
P. aeruginosa
  MIC: 2 µg/mL (≈ 5.14 µM)
Escherichia coli; [5]
  MIC Range: ≤0.008 to 0.125 µg/mL
  MIC50: ≤ 0.008 µg/mL
  MIC90: 0.032 µg/mL (≈ 0.0822 µM)
Escherichia coli; Escherichia coli ciprofloxacin resistant (n=5)
  MIC50: 32 µg/mL (≈ 82.2 µM)
Escherichia coli; Escherichia coli ciprofloxacin resistant (n=5), values marked *: MIC80 value
  MIC90: 32 µg/mL (≈ 82.2 µM)
Haemophilus influenzae [3]
  MIC90: 0.008 µg/mL (≈ 0.0205 µM)
  MIC Range: ≤0.004 to 0.125 µg/mL
